# In patent publication US4235902A, “Pesticidal carbamate esters of 5-oximino-1,3-oxazolidin-4-ones” (priority 1976, dated 1980):
# What was measured:
# [1] = system: bean aphid (Aphis fabae Scop.); assay: Bean aphid foliage spray test; assay type: in vivo; parameters: key: A: excellent control; B: partial control; C: no control; conditions: 500 parts per million, 24 hour
# Description: (§1) Suspensions of the test compounds were prepared by dissolving one gram of compound in 50 milliliters of acetone in which had been dissolved 0.1 gram (10 percent of the weight of compound) of an alkylphenoxy polyethoxyethanol surfactant, as an emulsifying or dispersing agent. The resulting solution was mixed into 150 milliliters of water to give roughtly 200 milliliters of a suspension containing the compound in finely divided form. The thus-prepared stock suspension contained 0.5 percent by weight of compound. The test concentrations in parts per million by weight employed in the tests described hereinbelow were obtained by appropriate dilutions of the stock suspension with water. The test procedures were as follows:
# BEAN APHID FOLIAGE SPRAY TEST
# Adults and nymphal stages of the bean aphid (Aphis fabae Scop.) reared on potted dwarf nasturtium plants at 64°-70° F. and 50-70 per cent relative humidity, constituted the test insects. For testing purposes, the number of aphids per pot was standardized to 100-150 by trimming plants containing excess aphids.
# The test compounds were formulated by diluting the stock suspension with water to give a suspension containing 500 parts of test compound per million parts of final formulation.
# The potted plants (one pot per compound tested) infested with 100-150 aphids, were placed on a revolving turntable and sprayed with […] of test compound formulation by use of a DeVilbiss spray gun set at 40 psig. air pressure. This application, which lasted 25 seconds, was sufficient to wet the plants to run-off. As a control, 100-110 milliliters of a water-acetone-emulsifier solution containing no test compound were also sprayed on infested plants. After spraying, the pots were placed on their sides on a sheet of white standard mimeograph paper which had been previously ruled to facilitate counting. Temperature and humidity in the test room during the 24 hour holding period were 65°-70° F. and 50-70 per cent, respectively. Aphids which fell onto the paper and were unable to remain standing after being uprighted were considered dead. Aphids remaning on the plants were observed closely for movement and those which were unable to move the length of the body upon stimulation by prodding were considered dead. Per cent mortality was recorded for various concentration levels.
# (§2) In these tests the pesticidal activity of the compounds against aphid, mite, Southern Armyworm, Mexican Bean Beetle, nematodes and house fly was rated as follows: […]
# [2] = system: two-spotted mite (Tetranychus urticae Koch); assay: Mite foliage spray test; assay type: in vivo; parameters: key: A: excellent control; B: partial control; C: no control; conditions: 500 parts per million, six days
# Description: as §1
# Adults and nymphal stages of the two-spotted mite (Tetranychus urticae Koch), reared on Tendergreen bean plants at 80±5 per cent relative humidity, were the test organisms. Infested leaves from a stock culture were placed on the primary leaves of two bean plants six to eight inches in height, growing in a two-and-a-half inch clay pot. 150-200 Mites, a sufficient number for testing, transferred from the excised leaves to the fresh plants in a period of twenty four hours. Following the twenty four hour transfer period, the excised leaves were removed from the infested plants. The test compounds were formulated by diluting the stock suspension with water to give a suspension containing 500 parts of test compound per million parts of final formulation. The potted plants (one pot per compound) were placed on a revolving turntable and sprayed with 100-110 milliliters of test compound formulation by use of a DeVilbiss spray gun set at 40 psig. air pressure. This application, which lasted 25 seconds, was sufficient to wet the plants to run-off. As a control, 100-110 milliliteres of a water solution containing acetone and emulsifier in the same concentrations as the test compound formulation, but containing no test compound, were also sprayed on infested plants. The sprayed plants were held at 80±5 per cent relative humidity for six days, after which a mortality count of motile forms was made. Microscopic examination for motile forms was made on the leaves of the test plants. Any individual which was capable of locomotion upon prodding was considered living.
# as §2
# [3] = system: southern armyworm (Prodenia eridania, (Cram.)); assay: Southern armyworm leaf spray test; assay type: in vivo; parameters: key: A: excellent control; B: partial control; C: no control; conditions: 500 parts per million, larvae, three days
# Description: as §1
# SOUTHERN ARMYWORM LEAF SPRAY TEST
# Larvae of the southern armyworm (Prodenia eridania, (Cram.)), reared on Tendergreen bean plants at a temperature of 80±5° F. and a relative humidity of 50±5 per cent, constituted the test insects.
# The test compounds were formulated by diluting the stock suspension with water to give a suspension containing 500 parts of test compound per million parts of final formulation. Potted Tendergreen bean plants of standard height and age were placed on a revolving turntable and sprayed with 100-110 milliliters of test compound formulation by use of a DeVilbiss spray gun set at 10 psig air pressure. This application, which lasted 25 seconds, was sufficient to wet plants to run-off. As a control, 100-110 milliliters of a water-acetone-emulsifier solution containing no test compound were also sprayed on infested plants. When dry, the paired leaves were separated and each one was placed in a 9 centimeter Petri dish lined with moistened filter paper. Five randomly selected larvae were introduced into each dish and the dishes were closed. The closed dishes were labeled and held at 80°-85° F. for three days. Although the larvae could easily consume the whole leaf within twenty-four hours, no more food was added. Larvae which were unable to move the length of the body, even upon stimulation by prodding, were considered dead. Per cent mortality was recorded for various concentration levels.
# as §2
# [4] = system: Mexican bean beetle (Epilachna varivestis, Muls.); assay: Mexican bean beetle leaf spray test; assay type: in vivo; parameters: key: A: excellent control; B: partial control; C: no control; conditions: 500 parts per million, fourth instar larvae, three days
# Description: as §1
# MEXICAN BEAN BEETLE LEAF SPRAY TEST
# Fourth instar larvae of the Mexican bean beetle (Epilachna varivestis, Muls.), reared on Tendergreen bean plants at a temperature of 80±5° F. and 50±5 per cent relative humidity, were the test insects.
# The test compounds were formulated by diluting the stock suspension with water to give a suspension containing 500 parts of test compound per million parts of final formulation. Potted Tendergreen bean plants of standard height and age were placed on a revolving turntable and sprayed with 100-110 milliliters of test compound formulation by use of a DeVilbiss spray gun set at 10 psig air pressure. This application, which lasted 25 seconds, was sufficient to wet plants to run-off. As a control 100-110 milliliters of a water-acetone-emulsifier solution containing no test compound were also sprayed on infested plants. When dry, the paired leaves were separated and each was placed in a 9 centimeter Petri dish lined with moistened filter paper. Five randomly selected larvae were introduced into each dish, and the dishes were closed. The closed dishes were labeled and held at a temperature of 80±5° F. for three days. Although the larvae could easily consume the leaf within 24 to 48 hours, no more food was added. Larvae which were unable to move the length of the body, even upon stimulation, were considered dead.
# as §2
# [5] = system: house flies (Musca domestica, L.); assay: Fly bait test; assay type: in vivo; parameters: key: A: excellent control; B: partial control; C: no control; conditions: 500 parts per million in sugar bait; twenty four hours
# Description: as §1
# Four to six day old adult house flies (Musca domestica, L.), reared according to the specifications of the Chemical Specialities Manufacturing Association (Blue Book, McNair-Dorland Co., N. Y. 1954; pages 243-244, 261) under controlled conditions of 80±5° F. and 50±5 per cent relative humidity, were the test insects. The flies were immobilized by anesthetizing with carbon dioxide and twenty five immobilized individuals, males and females, were transferred to a cage consisting of a standard food strainer about five inches in diameter which was inverted over a wrapping-paper-covered surface. The test compounds were formulated by diluting the stock suspension with a 10 per cent (by weight) sugar solution to give a suspension containing 500 parts of test compound per million parts of final formulation, by weight. Ten milliliters of the test formulation were added to a souffle cup containing a one-inch square of an absorbent cotton pad. This bait cup was introduced and centered on the blotting paper under the food strainer prior to admitting the anesthetized flies. The caged flies were allowed to feed on the bait for twenty four hours, at a temperature of 80±5° F. and the relative humidity of 50±5 per cent.
# as §2
# [6] = system: root-knot nematode, Meloidogyne incognita var. acrita; assay: Nematocide test; assay type: in vivo; parameters: key: A: excellent control; B: partial control; C: no control; conditions: 3.33 m.g. per jar; galling of cucumber roots rated after approximately 3 weeks
# Description: The test organism used was the infective migratory larvae of the root-knot nematode, Meloidogyne incognita var. acrita, reared in the greenhouse on roots of cucumber plants. Infected plants were removed from the culture, and the roots are chopped very finely. A small amount of this inoculum was added to a pint jar containing approximately 180 cc. of soil. The jars were capped and incubated for one week at room temperature. During this period eggs of the nematode were hatched, and the larval forms migrated into the soil.
# Ten ml. of the test formulation were added to each of the two jars for each dosage tested. Following the addition of chemical, the jars were capped, and the contents thoroughly mixed on a ball mill for 5 minutes.
# The test compounds were formulated by a standard procedure of solution in acetone addition of an emulsifier, and dilution with water. Primary screening tests were conducted at 3.33 m.g. of the test compound per jar.
# The jars were left capped at room temperature for a period of 48 hours, and the contents then transferred to 3 inch pots. Subsequently, the pots were seeded to cucumber as an indicator crop and placed in the greenhouse where they were cared for in the normal fashion for approximately 3 weeks.
# The cucumber plants were then taken from the pots, the soil removed from the roots, and the amount of galling visually rated.
# as §2
# [7] = Acute oral (peroral) toxicity to mammals; conditions: in vivo, rat, mortality rate of 50 percent
# Description: Certain of these compositions were also evaluated to determine their peroral toxicity to mammals. The animal selected for this experiment was the rat. The test results obtained are expressed in terms of the number of milligrams of compositions per kilogram of weight of the animal required to achieve a mortality rate of 50 percent (LD50).
Compound,Biological Activity: Aphid [1],Biological Activity: Mite [2],Biological Activity: Southern Army Worm [3],Biological Activity: Bean Beetle [4],Biological Activity: Housefly [5],Biological Activity: Nematode [6],LD50 [7] [mg/kg]
CNC(=O)ON=C1OCC(C)(C)N(C)C1=O,A,A,C,A,A,A,126
CCC1COC(=NOC(=O)NC)C(=O)N1C (centres unmarked),A,A,A,C,A,C,23.8
CCC1COC(=NOC(=O)N(C)SC(Cl)(Cl)Cl)C(=O)N1C (centres unmarked),A,A,C,A,A,A,–
CCN1CCOC(=NOC(=O)NC)C1=O,A,A,C,C,A,C,–
CNC(=O)ON=C1OCCN(C(C)C)C1=O,A,C,C,C,A,–,–
CCCN1CCOC(=NOC(=O)NC)C1=O,A,A,A,B,A,C,–
"CNC(=O)ON=C1OC(C)CN(C)C1=O (centres unmarked) [2-Methylcarbamoyloximino-4,-6-dimethyltetrahydro-1,4-oxazin-3-one]",A,A,A,A,A,A,–
"CNC(=O)ON=C1OCCN(C)C1=O [2-Methylcarbamoyloximino-4-methyltetrahydro1,4-oxazin-3-one]",A,A,A,A,A,A,343
"CN(SC(Cl)(Cl)Cl)C(=O)ON=C1OCC(C)(C)N(C)C1=O [2-[N-Trichloromethanesulfenyl-N-methyl/carbamoyloximino]-4,5,5-trimethyltetrahydro, -1,4-oxazin-3-one]",A,A,C,B,A,–,794
"CN1CCOC(=NOC(=O)N(C)SC(Cl)(Cl)Cl)C1=O [2-[N-Trichloromethanesulfenyl-N-methylcarbamoyloximino]-4-methyltetrahydro-1,4-oxazin-3-one]",A,B,C,A,A,A,–
